{
  "source": "patent US8460646B2",
  "about": "“Methods and compositions for treating mammalian nerve tissue injuries” (Purdue Research Foundation, priority 1998, dated 2013)",
  "key": {"[1]": {"tested_on": "crushed spinal cord ventral white matter strip", "assay": "Potassium channel blockade (4-AP) as adjunct to PEG-mediated recovery of CAP conduction", "set-up": "species or system guinea pig", "conditions": "for Enhancement of recovered CAP by 4-AP, group data: 5 cords; for Enhancement of recovered CAP by 4-AP: reversible", "protocol": "The above-described technique should be considered as a basic one, from which testing of several variations described below was performed. For example, tests were made of the response of “recovering” axons to the additional application of the fast potassium channel blocker, 4 aminopyridine (4-AP). In this trial, 5 separate cords were treated with an application of PEG as described above and compared to 5 control cords. One hour after compression, 100 pM 4-AP (in Krebs' solution) was applied for 15 minutes and then washed free with normal Krebs' solution as described above.\nSpinal cords were crushed, isolated and treated with PEG as described in Example 1. Analysis was also performed in the double sucrose recording chamber as described in Example 1."}, "[2]": {"tested_on": "crushed spinal cord ventral white matter strip", "conditions": "in vitro; Shi and Borgens 1999; cited from earlier work"}},
  "data": [
    {"smiles": "Nc1ccncc1", "note": "[4-AP, 4-aminopyridine]", "values": [
      {"measurement": "Enhancement of recovered CAP by 4-AP, group data", "setting": "[1]; PEG-treated (experimental) group", "value": "about 70%"},
      {"measurement": "Enhancement of recovered CAP by 4-AP", "setting": "[1]; PEG-treated cord, 4-AP at 1 hour post PEG application, individual test", "value": "about 70%"},
      {"measurement": "Enhancement of recovered CAP by 4-AP, group data", "setting": "[1]; control group (crushed, no PEG)", "value": "about 40%"},
      {"measurement": "Enhancement of recovered CAP by 4-AP", "setting": "[1]; crushed cord untreated with PEG, 100 pM 4-AP at 1 hour post injury, single test", "value": "about 40%"},
      {"measurement": "Magnitude of the recovered CAP after local 4-aminopyridine in PEG-repaired cord", "setting": "[2]", "value": "nearly doubles"}
    ]}
  ]
}
